*1 amine or outer side, *2 acyl side, *3 side chain or, on linkers, in order; H or OH if unused. Where a SMILES comes first, the peptide text is derived from it. Bridges are numbered along the chain shown (N, C = ends). [ ]: non-standard residue; d: D form. The star is where a group is joined. Orn(4R-OH,5R-OH) = O=C([C@H](C[C@@H](O)[C@@H](O)N[*:3])N[*:1])[*:2]; Tetradecanoyl(10R,12S-Me2) = CC[C@H](C)C[C@H](C)CCCCCCCCC(=O)*; hTyr(3S-OH,4S-OH) = N[C@H](C(=O)O)[C@H](O)[C@@H](O)c1ccc(O)cc1; Gln(3R-OH) = NC(=O)C[C@@H](O)[C@H](N)C(=O)O; Pro(3S-OH) = O=C(O)[C@H]1NCC[C@@H]1O; Hyp = O=C(O)[C@@H]1C[C@@H](O)CN1
Tests used:
[1] = test system: FMAL-actin plus TMR-cC0-C2; test: Selleck library HTS, 473 nm excitation (FLT of FMAL-actin with TMR-cC0-C2, FLT-FRET); assay type: binding, human
Procedure, shortened: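 Donor fluorescence lifetime was then recorded. Waveforms were fit to a single exponential, and ΔFLT was obtained after a moving-median plate-gradient correction (half-row window), rescaled by the median DMSO lifetime.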

[2] = test system: TMR-fC1-C2 (C1-C2 of fast skeletal MyBP-C); test: FLT-TMR concentration-response assay, fC1-C2; assay type: binding; settings: 60 μM compound
Procedure, shortened: (§1)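 Hits tested at eight concentrations (0.5–100 μM) and read on a high-throughput fluorescence lifetime plate reader. Hill fits applied only under certain conditions.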

[3] = test system: PKA-phosphorylated TMR-cC0-C2 (cC0-C2#P); test: FLT-TMR concentration-response assay, PKA-phosphorylated cC0-C2; assay type: binding, human; settings: 60 μM compound
Procedure, shortened: as §1

[4] = test system: FMAL-actin/TMR-fC1-C2 interaction; test: FLT-FRET concentration-response assay, FMAL-actin plus TMR-fC1-C2; assay type: binding
Description: (§2) Compounds identified as initial hits were further examined to determine the concentration–response curves for seven conditions ([1]): FMAL-actin alone identified actin-binding compounds that alter the FLT of FMAL-actin ([2]).
(§3) Fluorescence lifetime (FLT) measurements were acquired using a high-throughput FLT plate reader (Fluorescence Innovations, Inc) ([14], [27]), provided by Photonic Pharma LLC. […] The observed waveforms were analyzed as described previously ([15], [28]).
(§4) The primary hits were dissolved in DMSO to make a 10 mM stock solution, which was serially diluted in 96-well mother plates. Hits were screened at eight concentrations (0.5–100 μM). […] Compounds (1 μl) were transferred from the mother plates into 384-well plates using a Mosquito HV liquid handler (TTP Labtech Ltd, Hertfordshire, UK). The same procedure of dispensing as for the pilot screening was applied in the concentration-response assays. Concentration dependence of the FLT-FRET (E/EDMSO) or FLT-TMR (Δτ) change data was fit to a Hill equation only under certain conditions to help guide the eye (Fig. 4).

[5] = test system: FMAL-actin/TMR-cC0-C2 interaction; test: FLT-FRET concentration-response assay, FMAL-actin plus TMR-cC0-C2; assay type: binding, human; settings: unphosphorylated cC0-C2
Procedure, shortened: as §1

TMR-cC0-C2 = test: Selleck library HTS, 532 nm excitation (FLT of TMR-cC0-C2 in presence of FMAL-actin); assay type: binding, human
[6] = test system: TMR-cC0-C2 (C0-C2 fragment of human cMyBP-C); test: FLT-TMR concentration-response assay (FLT of TMR on cC0-C2, no actin); assay type: binding; settings: 60 μM compound
Procedure, shortened: as §1

[7] = test system: FMAL-actin/PKA-phosphorylated TMR-cC0-C2 interaction; test: FLT-FRET concentration-response assay, FMAL-actin plus PKA-phosphorylated TMR-cC0-C2; assay type: binding, human; settings: phosphorylated cC0-C2
Description: as §2, §3, §4

[8] = test system: bovine cardiac (left ventricular) myofibrils; test: Cardiac myofibril ATPase assay; assay type: biochemical; settings: 50 μM compound, pCa 8 to pCa 4
Description: Rabbit psoas and bovine cardiac myofibrils were prepared as described in our previous study ([17]). An enzyme-coupled, NADH-linked ATPase assay was used to measure skeletal and cardiac myofibril ATPase activity in 96-well microplates at 23 °C. Ionic strength was maintained below 0.2 M, so myofilaments remained insoluble and stable ([32]). To achieve optimal enzymatic activities, buffers for skeletal and cardiac myofibrils differed slightly ([33], [34]): skeletal in 50 mM MOPS, 100 mM KCl, 5 mM MgCl2, 1 mM EGTA, pH 7.0; cardiac in 20 mM MOPS, 35 mM NaCl, 5 mM MgCl2, 1 mM EGTA, pH 7.0. Each well in the microplate contained an assay mix of 0.84 mM phosphoenolpyruvate, 0.17 mM NADH, 10 U/vol pyruvate kinase, 20 U/vol lactate dehydrogenase. The concentration of free Ca^2+ was controlled by EGTA buffering ([35]). Myofibrils were dispensed in microplates with a multichannel pipette and were incubated with assay mix plus compound of interest for 20 min at 23 °C. The concentration of myofibrils used was 0.01 mg/ml for skeletal and 0.05 mg/ml for cardiac myofibrils. The assay was started upon the addition of ATP, at a final concentration of 2.1 mM (total volume to 200 μl), and absorbance was recorded at 340 nm in a SpectraMax Plus microplate spectrophotometer from Molecular Devices. The steady-state myofibrillar ATPase rate was measured from NADH oxidation, measured as the rate of decrease in absorption at 340 nm for 30 min, with absorption data collected every 15 s. All data and statistical analysis of steady-state kinetics were conducted with the OriginPro program. The results were fitted with the Hill equation:(6) […] is the ATPase rate and n is the Hill coefficient. ATPase activity is reported on the μmol ATP/mg protein/min scale. Average data are presented as mean ± SD. Sample means are derived from three different myofibril preps (N = 3), each done in duplicate (n = 6). The effects of compounds on ATPase activity of myofibrils were determined in the presence of 50 μM compound, across a 12-point pCa range from 4.0 (activation) to 8.0 (relaxation). The calcium sensitivity (pCa50) was determined by fitting the curves to the Hill equation. […] The normalized ATPase activity of the selected compounds can be found in Figure 6.

[9] = robust z-score, hit threshold ±4, 30 μM compound

effect on FLT-FRET / binding between FMAL-actin and TMR-fC1-C2 (in words) [4]: increased the binding | increase in actin binding (fC1-C2-actin FRET) ([4]; skeletal MyBP-C): 24% | effect on FLT-FRET / binding between FMAL-actin and TMR-cC0-C2 (in words) [5]: increased the binding | effect on FLT-FRET / binding between FMAL-actin and PKA-phosphorylated TMR-cC0-C2 (in words) [7]: decreasing the binding | effect on cardiac MF ATPase activity (in words) [8]: ATPase-activating effect
Structure (SMILES): CC[C@H](C)C[C@H](C)CCCCCCCCC(=O)N[C@H]1C[C@@H](O)[C@@H](O)NC(=O)[C@@H]2[C@@H](O)CCN2C(=O)[C@H]([C@H](O)CC(N)=O)NC(=O)[C@H]([C@H](O)[C@@H](O)c2ccc(O)cc2)NC(=O)[C@@H]2C[C@@H](O)CN2C(=O)[C@H]([C@@H](C)O)NC1=O [Pneumocandin B0] ({Tetradecanoyl(10R,12S-Me2)}-[Orn(4R-OH,5R-OH)]T[Hyp][hTyr(3S-OH,4S-OH)][Gln(3R-OH)][Pro(3S-OH)]; lactam 1-C)
473-nm Δτ, Repeat 1 ([1]; initial screen, 30 μM compound): -0.050 ns | 473-nm Δτ, Repeat 2 ([1]; initial screen, 30 μM compound): -0.053 ns | 473-nm z-score (based on avg Δτ) [1, 9]: -2.83 | cC0-C2/fC1-C2 (ratio of FLT changes) [2]: 1.1 | fC1-C2 FLT change (% change from DMSO, FLT of TMR-MyBP-C) [2]: 11.4% | cC0-C2#P FLT change (% change from DMSO, FLT of TMR-MyBP-C) [3]: 13.2% | 532-nm Δτ, Repeat 1 (TMR-cC0-C2; initial screen, 30 μM compound): 0.179 ns | 532-nm Δτ, Repeat 2 (TMR-cC0-C2; initial screen, 30 μM compound): 0.149 ns | 532-nm z-score (based on avg Δτ) (TMR-cC0-C2; [9]): 10.04 | cC0-C2/cC0-C2#P (ratio of FLT changes) [6]: 0.9 | cC0-C2 FLT change (% change from DMSO, FLT of TMR-MyBP-C) [6]: 12.4%

— article PMC10692721, “Drug discovery for heart failure targeting myosin-binding protein C” (The Journal of Biological Chemistry, 2023)
